The values that follow come from publication PMC5919655, “Practical spectrophotometric assay for the dapE-encoded N-succinyl-L,L-diaminopimelic acid desuccinylase, a potential antibiotic target” (PLoS ONE, 2018).

Molecules are shown by their SMILES.

Experiment [1] concerns the target T1, succinyl-diaminopimelate desuccinylase (HiDapE) (Haemophilus influenzae, UniProt P44514).
T1 construct: gene dapE; recombinant HiDapE, His6-tag cleaved with TEV protease
Put plainly: hydrolysis by purified HiDapE monitored at […] nm (kcat/Km). The format is biochemical.

Experiment [2] concerns the target T1, succinyl-diaminopimelate desuccinylase (HiDapE). Put plainly: ninhydrin-based assay of purified HiDapE with N6-methyl-L,L-SDAP substrate, […] nm. Type of experiment: biochemical.

T1 sequence (P44514 whole entry): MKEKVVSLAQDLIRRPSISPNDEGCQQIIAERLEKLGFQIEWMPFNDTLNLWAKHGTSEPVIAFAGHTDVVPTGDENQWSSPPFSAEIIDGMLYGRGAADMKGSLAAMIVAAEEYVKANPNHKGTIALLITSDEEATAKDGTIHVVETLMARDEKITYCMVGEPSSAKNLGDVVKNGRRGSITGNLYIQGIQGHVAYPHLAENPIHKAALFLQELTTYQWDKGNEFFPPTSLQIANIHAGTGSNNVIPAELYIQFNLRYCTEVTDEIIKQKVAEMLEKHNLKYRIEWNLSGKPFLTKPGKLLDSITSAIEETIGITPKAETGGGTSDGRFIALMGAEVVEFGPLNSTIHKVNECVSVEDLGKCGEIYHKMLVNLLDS

For the molecule `CN[C@@H](CCC[C@H](NC(=O)CCC(=O)O)C(=O)O)C(=O)O` [1b, (2S,6S)-2-(3-Carboxypropanamido)-6-(methylamino)heptanedioic acid], the “hydrolysis by purified HiDapE monitored at 225 nm (kcat/Km)” value in experiment [1] was 3.87x 10^4 M^-1S^-1.

On to `OB(O)c1cccs1` [2-thiopheneboronic acid], for which the midpoint of inhibition in experiment [2], the IC50, lay at 111 µM. For the molecule `O=C(O)c1cccc(S)c1` [3-mercaptobenzoic acid], the IC50 (usually the midpoint of a concentration-inhibition curve) in experiment [2] was determined as 21.8 µM.
